{"source": "patent US6858221B2", "about": "“Intravascular delivery of mycophenolic acid” (Avantec Vascular Corporation, priority 2000, dated 2005)", "origin": "cited, not measured here", "test_system": "Human SMC", "details": "dose range 0.1 nM-1 μM, Mohacsi et al. 1997", "note": "pIC50: −log10 of the molar value.", "data": [{"smiles": "CO[C@H]1C[C@@H]2CC[C@@H](C)[C@@](O)(O2)C(=O)C(=O)N2CCCC[C@H]2C(=O)O[C@H]([C@H](C)C[C@@H]2CC[C@@H](O)[C@H](OC)C2)CC(=O)[C@H](C)/C=C(\\C)[C@@H](O)[C@@H](OC)C(=O)[C@H](C)C[C@H](C)/C=C/C=C/C=C/1C", "note": "[Rapamycin, rapamycin]", "values": [{"measurement": "pIC50", "result": 9.00}]}]}
